Assay results: paper PMC10714400, “Antimicrobial Peptide–Peptoid Hybrids with and without Membrane Disruption” (ACS Infectious Diseases, 2023)

What was measured:
[1] = tested on: A. baumannii ATCC19606
Description: (§1) Antimicrobial activity was assayed for all the peptide–peptoids against P. aeruginosa PAO1, K. pneumoniae NCTC418, E. coli W3110, A. baumannii ATCC 19606, methicillin-resistant S. aureus COL (MRSA), and for selected peptides on P. aeruginosa PA14 and the polymyxin-B-resistant derivatives PA14 4.13, PA14 4.18, PA14 2P4, as well as the clinical isolates ZEM-1A and ZEM9A, K. pneumoniae OXA-48, S. aureus Newman, Enterobacter cloacae, Stenotrophomonas maltophilia, Burkholderia cenocepacia, and Staphylococus epidermidis. To determine the Minimal Inhibitory Concentration (MIC), the Broth Microdilution method was used.[72] A colony of bacteria was picked and grown in LB medium overnight at 37 °C.
(§2) To each well was finally added 4 μL of the diluted bacterial suspension (see above), corresponding to approximately 5 × 10^5 CFU. For each test, two columns of the plate were kept for sterility control (medium only), growth control (medium with bacterial inoculum, no compound). The positive control, Polymyxin B (starting with a concentration of 16 μg/mL) in MH medium with bacterial inocula, was introduced in the two lines of the plate. The plates were incubated at 37 °C for ca. 18 h under static conditions. Next, 15 μL of 3-(4,5-dimethylthiazol-2-yl)-2,5-diphenyltetrazolium bromide (MTT)[73] (1 mg/mL in sterilized MilliQ deionized water) were added to each well, and the plates were incubated for 20–30 min at room temperature. The minimal inhibitory concentration (MIC) was defined as the lowest concentration of the compound that inhibits the visible growth of the tested bacteria (yellow) with the unaided eye.

[2] = tested on: E. cloacae; conditions: Table S3; […] MH at pH 8.5
Description: as §1, §2

[3] = tested on: E. coli W3110
Description: as §1, §2

[4] = tested on: K. pneumoniae NCTC418
Description: as §1, §2

[5] = tested on: K. pneumoniae OXA-48; conditions: Table S3; […] MH at pH 8.5
Description: as §1, §2

[6] = tested on: P. aeruginosa PAO1
Description: as §1, §2

[7] = tested on: PA14 2P4 (pmrB); conditions: diluted MH ([…] MH) at pH 8.5 (Table 2 footnote b)
Description: as §1, §2

[8] = tested on: PA14 4.13 (phoQ); conditions: diluted MH ([…] MH) at pH 8.5 (Table 2 footnote b)
Description: as §1, §2

[9] = tested on: PA14 4.18 (pmrB); conditions: diluted MH ([…] MH) at pH 8.5 (Table 2 footnote b)
Description: as §1, §2

[10] = tested on: S. aureus COL (MRSA); conditions: Table S2
Description: as §1, §2

[11] = tested on: ZEM-1A (clinical MDR P. aeruginosa isolate); conditions: Table S3; […] MH at pH 8.5
Description: as §1, §2

[12] = tested on: ZEM9A (clinical MDR P. aeruginosa isolate); conditions: Table S3; […] MH at pH 8.5
Description: as §1, §2

[13] = Circular dichroism, α-helical content; assay type: physicochemical; conditions: 0.1 mg/mL; for CD %α with 5 mM DPC: 10 mM phosphate buffer pH 7.4, 5 mM DPC; for CD %α with 20% TFE: 10 mM phosphate buffer pH 7.4, 20% TFE
[14] = tested on: B. cenocepacia; conditions: 4 h, pH 8.5
Description: as §1
as §2, with “The plates were incubated at 37 °C for ca. 18 h under static conditions.” left out

[15] = tested on: P. aeruginosa PA14; conditions: Table S3; […] MH at pH 8.5, 16-20 hours at 37 °C
Description: as §1
as §2, with “The plates were incubated at 37 °C for ca. 18 h under static conditions.” left out

[16] = tested on: S. aureus Newman; conditions: Table S3; […] MH at pH 8.5
Description: as §1
as §2, with “The plates were incubated at 37 °C for ca. 18 h under static conditions.” left out

[17] = tested on: S. epidermis; conditions: Table S3; […] MH at pH 8.5
Description: as §1
as §2, with “The plates were incubated at 37 °C for ca. 18 h under static conditions.” left out

[18] = tested on: S. maltophilia; conditions: Table S3; […] MH at pH 8.5
Description: as §1
as §2, with “The plates were incubated at 37 °C for ca. 18 h under static conditions.” left out

[19] = tested on: P. aeruginosa PAO1; experiment: Bacterial count after treatment, before TEM sample preparation; assay type: cell-based, Pseudomonas aeruginosa; conditions: P. aeruginosa PAO1, […] MH pH 8.5, 10x MIC
Description: (§3) Just before the samples were further prepared for the microscopy, surviving bacteria were quantified by plating 10-fold dilutions of samples in sterilized normal saline (NaCl 0.9%) on LB agar plates. […] The assay was performed in triplicate. Each bacteria sample was centrifuged at 12,000 rpm for 3 min, and the supernatant was discarded. The samples were then further processed and imaged using our previously described protocol.[64]
8. Transmission electron microscopy (TEM)
Table S4: Bacterial counts, 2 hours after treatment, before TEM sample preparation. Data represents triplicates.
Bacteria count after treatment at 10x MIC and 2 h of incubation at 37 °C
Control (non-treated cells) 1 × 10^8 CFU (100)

[20] = tested on: P. aeruginosa PAO1; experiment: Transmission electron microscopy (TEM); assay type: cell-based, Pseudomonas aeruginosa; conditions: P. aeruginosa PAO1, 10 × MIC, […] MH at pH 8.5, 2 h at 37 °C
Description: Scale bars are 500 nm and 1 μm. Red arrows: membrane perturbations. Blue arrows: intracellular aggregation. Yellow arrows: empty area within the cell.
as §3

H-VDKPPYLPRPRPPRRIYNR-NH2 [Onc, reference compound]
16 µg/mL: MIC P. aeruginosa ZEM9A [12]
4 fold: Activity increase in dilute medium ([1]; […] MH vs full MH, A. baumannii) | Activity increase in dilute medium ([3]; […] MH vs full MH, E. coli) | Activity increase in dilute medium ([4]; […] MH vs full MH, K. pneumoniae)
aggregation of intracellular components: TEM micrographs, changes in treated bacteria [20]
20%: CD %α with 5 mM DPC ([13]; DichroWeb, Contin-LL) | CD %α with 5 mM DPC ([13]; Table S2)
strongly reduced: Antibacterial activity as a function of NaCl concentration ([3]; E. coli W3110, […] MH at pH 8.5, up to 300 mM NaCl) | Antibacterial activity as a function of NaCl concentration ([6]; P. aeruginosa PAO1, […] MH at pH 8.5, up to 300 mM NaCl)
1 µg/mL: MIC E. coli W3110 […] 7.4 ([3]; Table S2, […] MH, pH 7.4) | MIC E. coli W3110 […] 8.5 ([3]; Table S2, […] MH, pH 8.5) | MIC E. coli W3110 Full MH 8.5 ([3]; Table S2, full MH, pH 8.5) | MIC K. pneumoniae NCTC418 […] 7.4 ([4]; Table S2, […] MH, pH 7.4) | MIC K. pneumoniae NCTC418 […] 8.5 ([4]; Table S2, […] MH, pH 8.5) | MIC K. pneumoniae OXA-48 [5] | MIC S. aureus Newman [16]
4 µg/mL: MIC A. baumannii ATCC19606 […] 7.4 ([1]; Table S2, […] MH, pH 7.4) | MIC A. baumannii ATCC19606 […] 8.5 ([1]; Table S2, […] MH, pH 8.5) | MIC E. coli W3110 Full MH 7.4 ([3]; Table S2, full MH, pH 7.4) | MIC K. pneumoniae NCTC418 Full MH 7.4 ([4]; Table S2, full MH, pH 7.4) | MIC K. pneumoniae NCTC418 Full MH 8.5 ([4]; Table S2, full MH, pH 8.5) | MIC S. epidermis [17]
32 µg/mL: MIC A. baumannii ATCC19606 Full MH 7.4 ([1]; Table S2, full MH, pH 7.4) | MIC P. aeruginosa PAO1 […] 7.4 ([6]; Table S2, […] MH, pH 7.4) | MIC S. aureus COL (MRSA) […] 7.4 ([10]; […] MH, pH 7.4) | MIC B. cenocepacia [14]
> 32 µg/mL: MIC P. aeruginosa PAO1 Full MH 7.4 ([6]; Table S2, full MH, pH 7.4) | MIC P. aeruginosa PAO1 Full MH 8.5 ([6]; Table S2, full MH, pH 8.5) | MIC S. aureus COL (MRSA) Full MH 7.4 ([10]; full MH, pH 7.4) | MIC S. aureus COL (MRSA) Full MH 8.5 ([10]; full MH, pH 8.5) | MIC S. maltophilia [18]
2 µg/mL: MIC E. cloacae [2] | MIC PA14 2P4 (pmrB) [7] | MIC PA14 4.13 (phoQ) [8] | MIC PA14 4.18 (pmrB) [9] | MIC P. aeruginosa ZEM-1A [11] | MIC P. aeruginosa PA14 [15]
8 µg/mL: MIC A. baumannii ATCC19606 Full MH 8.5 ([1]; ATCC19606, 4 h, pH 8.5)
0.01 % of control: Bacteria count after treatment at 10x MIC and 2 h of incubation at 37 °C (% of control) [19]
23%: CD %α with 20% TFE ([13]; DichroWeb, Contin-LL) | CD %α with 20% TFE ([13]; Table S2)
